Source: paper PMC4579270, “Identification and Characterization of an Irreversible Inhibitor of CDK2” (Chemistry & Biology, 2015)
Like-named read-outs stand apart in the source and are kept apart here.

What was measured:
TAO1 = target: T1, TAO1 (Homo sapiens, UniProt Q7L7X3); assay: Dundee kinase screen re-test (standard format and 4 hour pre-incubation); type: biochemical; conditions: TAO1, 0.5µM
T1 sequence (Q7L7X3 1-1001): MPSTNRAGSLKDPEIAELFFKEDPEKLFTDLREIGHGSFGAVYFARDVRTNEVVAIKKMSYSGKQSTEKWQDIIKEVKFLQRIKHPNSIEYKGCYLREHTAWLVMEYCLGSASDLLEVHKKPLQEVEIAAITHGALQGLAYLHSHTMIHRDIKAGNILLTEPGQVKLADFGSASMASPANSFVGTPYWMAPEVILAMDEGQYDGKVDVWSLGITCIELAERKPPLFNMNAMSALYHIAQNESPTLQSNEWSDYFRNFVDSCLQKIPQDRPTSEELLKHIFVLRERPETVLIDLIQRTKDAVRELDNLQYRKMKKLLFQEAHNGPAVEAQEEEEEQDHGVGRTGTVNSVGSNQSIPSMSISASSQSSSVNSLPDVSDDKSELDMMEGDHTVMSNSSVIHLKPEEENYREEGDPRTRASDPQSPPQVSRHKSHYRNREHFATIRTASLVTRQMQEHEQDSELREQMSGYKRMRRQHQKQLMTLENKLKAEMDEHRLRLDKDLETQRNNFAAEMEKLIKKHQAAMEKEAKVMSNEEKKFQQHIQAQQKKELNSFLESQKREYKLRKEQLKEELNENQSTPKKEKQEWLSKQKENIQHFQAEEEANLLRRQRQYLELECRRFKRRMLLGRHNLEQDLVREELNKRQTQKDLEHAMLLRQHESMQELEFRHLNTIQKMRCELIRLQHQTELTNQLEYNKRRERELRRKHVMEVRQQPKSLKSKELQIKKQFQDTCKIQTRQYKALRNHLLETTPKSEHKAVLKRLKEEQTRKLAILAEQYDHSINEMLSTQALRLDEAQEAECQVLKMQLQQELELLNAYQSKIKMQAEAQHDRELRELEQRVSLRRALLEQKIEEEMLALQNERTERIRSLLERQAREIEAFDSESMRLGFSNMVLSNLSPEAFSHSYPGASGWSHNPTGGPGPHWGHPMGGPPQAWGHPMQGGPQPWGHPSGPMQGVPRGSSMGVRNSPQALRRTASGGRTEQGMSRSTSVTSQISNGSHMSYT
Summary of the method: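 Selectivity panel of 131 protein kinases, inhibitor tested at a single concentration of 1 µM; values are % kinase activity remaining, mean of duplicates. Re-test of selected kinases used 0.5 µM in the standard format and again after a 4 hour pre-incubation with the inhibitor.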

CDK2^K88E/cyclin A = target: T2, CDK2^K88E/cyclin A (Homo sapiens, UniProt P24941, K88E); assay: Bandshift kinase assay after incubation and dialysis, mutant; type: biochemical
T2 construct: GST (N, cleaved yes); made in house; host or cells: Escherichia coli; phosphorylated in vitro by GST-CAK
Procedure: The bandshift experiment was repeated after incubating CDK2^K88E/cyclin A and CDK2^K89V/cyclin A with NU6300, NU6310, or DMSO followed by dialysis to remove unbound inhibitor (Figure S2G).
Figure S2, Related to Figure 3. Identification of the site of CDK2 modification by NU6300. (A-G) Single site CDK2 mutants CDK2D86A, CDK2K88E, and CDK2K89V identify the site of CDK2 modification by NU6300. These mutations change the CDK2 sequence to that of CDK7 and are known not to disrupt the CDK2 fold. Mass spectra of CDK2 mutants: […]
(G) Protein kinase activity of authentic CDK2 and single site CDK2 mutants following incubation with NU6300 or NU6310. Samples were taken at the indicated number of minutes after initiation of the reaction. Note that compared to authentic CDK2, the single site Lys88 and Lys89 mutants have a slower rate of reaction (Compare LHS panels). This drop in activity was expected because whereas the wild type protein was produced by co-expression with S. cerevisiae […]
the mutant proteins were activated by S. cerevisiae CAK1 phosphorylation in vitro– a relatively inefficient process as judged from the results of ESI-MS (Table S1). (H) NU6300 […]
NU6300 carbon atoms are coloured green. Rb, retinoblastoma protein, Phospho-Rb, […]
Protein expression and purification
Site-directed mutagenesis of CDK2 was performed using the QuikChange II kit (Stratagene) following the manufacturer’s instructions and verified by DNA sequencing.
Wild-type CDK2 phosphorylated at Thr160, untagged human cyclin A2 (residues 174-432), S. cerevisiae GST–CAK, GST–3C-protease and GST–pRb (residues 792–928) were expressed and purified as previously described (Brown et al., 1999a; Brown et al., 1999b; Welburn and Endicott, 2005). […]
CDK2/cyclin A (200 µM) was incubated overnight with 1 mM inhibitor or DMSO, and then dialysed for 8 h with regular replacement of dialysis buffer into HEPES-buffered saline (50 mM HEPES, pH 7.5, 250 mM NaCl, 0.02% MTG). […] Reactions were stopped by addition of SDS-PAGE loading buffer and analyzed by SDS-PAGE. […]

| CDK2 activity against Rb after incubation with inhibitor and dialysis (CDK2^K88E/cyclin A) | Structure (SMILES) | remaining activity at 0.5 µM (TAO1; 4hr RT preincubation, read-out: %Remaining activity at 0.5µM NU6300 - 4hr RT preincubation) | remaining activity at 0.5 µM (TAO1; usual format, read-out: %Remaining activity at 0.5µM NU6300 - Usual assay format) |
| --- | --- | --- | --- |
|  | C=CS(=O)(=O)c1ccc(Nc2nc(OCC3CCCCC3)c3nc[nH]c3n2)cc1 [NU6300, 6-(cyclohexylmethoxy)-N-(4-(vinylsulfonyl)phenyl)-9H-purin-2-amine] | 20% | 27% |
| recovered their activity | CCS(=O)(=O)c1ccc(Nc2nc(OCC3CCCCC3)c3nc[nH]c3n2)cc1 [NU6310, 6-(cyclohexylmethoxy)-N-(4-(ethylsulfonyl)phenyl)-9H-purin-2-amine] |  |  |
